# Data as given in patent publication US20250034182A1, “PHOSPHOLIPID COMPOUNDS AND METHODS OF MAKING AND USING THE SAME” (priority 2021, published 2025).
# Assays:
# Type in all cases: cell-based
# [1] = HCV Replicon 1B CC50, calcein AM (Example Q); conditions: calcein AM fluorescence, read-out: HCV Replicon 1B CC50 (nM) (per Ex. Q)
# Experimental: (§1) Compounds were serially diluted in ten steps of 1:3 dilutions in 384-well plates. All serial dilutions were performed in four replicates per compound within the same 384-well plate. An HCV protease inhibitor ITMN-191 at […] was added as a control of 100% inhibition of HCV replication while puromycin at 10 mM was included as a control of 100% cytotoxicity. To each well of a black polystyrene 384-well plate (Greiner Bio-one, Monroe, NC), 90 μL of cell culture medium (without Geneticin) containing 2000 suspended HCV replicon cells was added with a Biotek μFlow workstation. For compound transfer into cell culture plates, 0.4 μL of compound solution from the compound serial dilution plate was transferred to the cell culture plate on a Biomek FX workstation. The DMSO concentration in the final assay wells was 0.44%. The plates were incubated for 3 days at 37° C. with 5% CO2 and 85% humidity. The HCV replicon assay was a multiplex assay, able to assess both cytotoxicity and antireplicon activity from the same well. The CC50 assay was performed first. The media in the 384-well cell culture plate was aspirated, and the wells were washed four times with 100 μL of PBS each, using a Biotek ELX405 plate washer. A volume of 50 μL of a solution containing 400 nM calcein AM (Anaspec, Fremont, CA) in 1×PBS was added to each well of the plate with a Biotek μFlow workstation. The plate was incubated for 30 min at room temperature before the fluorescence signal (excitation 490 nm, emission 520 nm) was measured with a Perkin-Elmer Envision plate reader. The EC50 assay was performed in the same wells as the CC50 assay. The calcein-PBS solution in the 384-well cell culture plate was aspirated with a Biotek ELX405 plate washer. A volume of 20 μL of Dual-Glo luciferase buffer (Promega, Madison, WI) was added to each well of the plate with a Biotek μFlow Workstation. The plate was incubated for 10 min at room temperature. A volume of 20 μL of a solution containing a 1:100 mixture of Dual-Glo Stop & Glo substrate (Promega, Madison, WI) and Dual-Glo Stop & Glo buffer (Promega, Madison, WI) was added to each well of the plate with a Biotek μFlow Workstation. The plate was then incubated at room temperature for 10 min before the luminescence signal was measured with a Perkin-Elmer Envision Plate Reader.
# [2] = system: CAN97-83-GFP1 (A2a) hMPV in H1-HeLa cells; assay: hMPV H1-Hela EC50, anti-nucleoprotein ELISA (Example X); conditions: human metapneumovirus, 96 h, read-out: hMPV H1-Hela EC50 (nM) (per Ex. X)
# Experimental: The human metapneumoavirus (hMPV) anti-viral assay is an anti-nucleoprotein ELISA performed in infected H1-HeLa cells. H1-HeLa cells were maintained in Dulbecco's Modified Eagle's Medium with high glucose (Gibco, Cat #: 11995073) supplemented with 10% FBS (HyClone, Cat #: SH303396.03), 100 units/mL penicillin and 100 μg/mL streptomycin (Gibco, Cat #: 15140122). One day before infection, H1-HeLa cells were seeded into 96-well plates (Corning, Cat. #: 3903) at 0.1 mL/well at 1.5×10^5 cells/mL in Opti-MEM (Gibco, Cat #: 31985070) supplemented with 2% FBS, and were incubated at 37° C. in a 100% humid atmosphere containing 5% (v/v) CO2 overnight. On the next day, CAN97-83-GFP1 (A2a) hMPV was diluted in Opti-MEM medium containing 200 μg/mL CaCl2) and 2 μg/mL TPCK treated trypsin and distributed to the 96-well plates at 0.1 mL/well for an MOI=0.1. Test compounds were distributed to each well using a HP D300e digital dispenser with a final volume of 200 µL/well. After the plates were centrifuged at 700 g for one hour at room temperature, they were maintained in a humidified chamber at 37-C with 5% (v/v) CO2 for 96 hours. After the incubation, the medium was removed, and the plates were fixed with 0.1 mL/well 1% formaldehyde for 15 min at room temperature. The fixative was removed, the plates were air dried for 30-60 minutes, and then permeabilized with 0.1 mL/well 0.5% Triton X-100 in PBS for five minutes at room temperature. Following permeabilization, the plates were washed once with 0.1 mL/well blocking buffer consisting of 10% FBS (HyClone, Cat #: SH303396.03), 5% dry milk (AmericanBio, Cat #: AB10109-01000), and 0.1% Tween 20 (EMD Millipore, Cat #655204) in PBS. The plates were blocked with 0.1 mL/well blocking buffer for 60 minutes at 37° C. afterward. The blocking buffer was removed and 0.05 mL/well human metapneumovirus nucleocapsid antibody (Sigma, Cat #MAB80121) diluted 1:500 in Blocking buffer was added and incubated for two hours at 37-C. The plates were then washed with 0.2 mL/well 0.1% Tween 20/PBS five times, followed by addition of 0.05 mL/well of horseradish peroxidase (HRP) conjugated goat anti-mouse IgG antibody (Fisher Scientific, Cat #501077607) at 1:2000 dilution in the blocking buffer. After one-hour incubation at 37-C, plates were washed five times with 0.2 mL/well 0.1% tween 20 in PBS. The HRP signals were developed by adding 0.1 mL/well of TMB reagent (Thermo Scientific, Cat #: ENN301) and incubating at room until the positive control was apparent. At that point, the reaction was stopped by adding 0.1 mL/well TMB stop solution (SeraCare, Cat #: 5150-0021). The absorbance was measured at 450 nm with an EnVision plate reader. The relative absorbance was calculated by normalizing the absorbance of the compound-treated groups to that of the DMSO-treated groups (set as 100%). EC50 values were calculated using a nonlinear four parameter variable slope regression model.
# [3] = HCV Replicon 2A CC50, calcein AM (Example Q); conditions: calcein AM fluorescence, read-out: HCV Replicon 2A CC50 (nM) (per Ex. Q)
# Experimental: as §1
Structure (SMILES),CC50 at 3 days ([1]; HCV replicon cells) [nM],EC50 [2] [nM],CC50 at 3 days ([3]; HCV replicon cells) [nM],CC50 at 3 days ([1]; HCV replicon cells (1B)) [nM],CC50 at 3 days ([3]; HCV replicon cells (2A)) [nM]
"CCCCCCCCCCCCCCCCCCC[C@H](COP(=O)(O)OC[C@@]1(C#N)O[C@@H](c2ccc3c(N)ncnn23)[C@H](O)[C@@H]1O)OCc1ccc(-n2cncn2)c(C#N)c1 [Compound 30, ((2R,3S,4R)-5-(4-aminopyrrolo[2,1-f][1,2,4]triazin-7-yl)-2-cyano-3,4-dihydroxytetrahydrofuran-2-yl)methyl ((R)-2-((3-cyano-4-(1H-1,2,4-triazol-1-yl)benzyl)oxy)henicosyl) hydrogen phosphate]",> 44400,188,42400,,
"CCCCCCCCCCCCCCCCCCOC[C@H](COP(=O)(O)OC[C@@]1(C#N)O[C@@H](c2ccc3c(N)ncnn23)[C@H](O)[C@@H]1O)Oc1cccc(C#N)n1 [Compound 21, ((2R,3S,4R,5S)-5-(4-aminopyrrolo[2,1-f][1,2,4]triazin-7-yl)-2-cyano-3,4-dihydroxytetrahydrofuran-2-yl)methyl ((R)-2-((6-cyanopyridin-2-yl)oxy)-3-(octadecyloxy)propyl) hydrogen phosphate]",,,,> 44400,> 44400
"CCCCCCCCCCCCCCCC[C@H](COP(=O)(O)OC[C@@]1(C#N)O[C@@H](c2ccc3c(N)ncnn23)[C@H](O)[C@@H]1O)OCc1cc(F)cc(C#N)c1 [Compound 78, ((2R,3S,4R,5S)-5-(4-aminopyrrolo[2,1-f][1,2,4]triazin-7-yl)-2-cyano-3,4-dihydroxytetrahydrofuran-2-yl)methyl ((R)-2-((3-cyano-5-fluorobenzyl)oxy)octadecyl) hydrogen phosphate]",,,,> 44400,33800
"CCCCCCCCCCCCCCCCC[C@@H](COP(=O)(O)OC[C@@]1(C#N)O[C@@H](c2ccc3c(N)ncnn23)[C@H](O)[C@@H]1O)OCc1cc(F)cc(C#N)c1 [Compound 74, ((2R,3S,4R)-5-(4-aminopyrrolo[2,1-f][1,2,4]triazin-7-yl)-2-cyano-3,4-dihydroxytetrahydrofuran-2-yl)methyl ((S)-2-((3-cyano-5-fluorobenzyl)oxy)nonadecyl) hydrogen phosphate]",> 44400,,35800,,
"CCCCCCCCCCCCCCC[C@H](COP(=O)(O)OC[C@@]1(C#N)O[C@@H](c2ccc3c(N)ncnn23)[C@H](O)[C@@H]1O)OCc1cc(F)cc(C#N)c1 [Compound 80, ((2R,3S,4R,5S)-5-(4-aminopyrrolo[2,1-f][1,2,4]triazin-7-yl)-2-cyano-3,4-dihydroxytetrahydrofuran-2-yl)methyl ((R)-2-((3-cyano-5-fluorobenzyl)oxy)heptadecyl) hydrogen phosphate]",,668,,> 44400,36900
"CCCCCCCCCCCCCCCCC[C@H](COP(=O)(O)OC[C@@]1(C#N)O[C@@H](c2ccc3c(N)ncnn23)[C@H](O)[C@@H]1O)OCc1cc(F)cc(C#N)c1 [Compound 36, ((2R,3S,4R,5S)-5-(4-aminopyrrolo[2,1-f][1,2,4]triazin-7-yl)-2-cyano-3,4-dihydroxytetrahydrofuran-2-yl)methyl ((R)-2-((3-cyano-5-fluorobenzyl)oxy)nonadecyl) hydrogen phosphate]",> 44400,1100,> 44400,,
"CCCCCCCCCCCCCCCCCOC[C@H](COP(=O)(O)OC[C@@]1(C#N)O[C@@H](c2ccc3c(N)ncnn23)[C@H](O)[C@@H]1O)OCc1cc(F)cc(C#N)c1 [Compound 53, ((2R,3S,4R,5S)-5-(4-aminopyrrolo[2,1-f][1,2,4]triazin-7-yl)-2-cyano-3,4-dihydroxytetrahydrofuran-2-yl)methyl ((R)-2-((3-cyano-5-fluorobenzyl)oxy)-3-(heptadecyloxy)propyl) hydrogen phosphate]",,,,> 44400,36200
"CCCCCCCCCCCCCCCCCC[C@H](COP(=O)(O)OC[C@@]1(C#N)O[C@@H](c2ccc3c(N)ncnn23)[C@H](O)[C@@H]1O)OCc1cc(Cl)cc(C#N)c1 [Compound 81, ((2R,3S,4R,5S)-5-(4-aminopyrrolo[2,1-f][1,2,4]triazin-7-yl)-2-cyano-3,4-dihydroxytetrahydrofuran-2-yl)methyl ((R)-2-((3-chloro-5-cyanobenzyl)oxy)icosyl) hydrogen phosphate]",,453,,> 44400,37900
"CCCCCCCCCCCCCCCCCCOC[C@H](COP(=O)(O)OC[C@@]1(C#N)O[C@@H](c2ccc3c(N)ncnn23)[C@H](O)[C@@H]1O)OCc1ccc(C#N)c(Cl)c1 [Compound 7, ((2R,3S,4R,5S)-5-(4-aminopyrrolo[2,1-f][1,2,4]triazin-7-yl)-2-cyano-3,4-dihydroxytetrahydrofuran-2-yl)methyl ((R)-2-((3-chloro-4-cyanobenzyl)oxy)-3-(octadecyloxy)propyl) hydrogen phosphate]",,358,,> 44400,> 44400
"CCCCCCCCCCCCCCCCCCOC[C@H](COP(=O)(O)OC[C@@]1(C#N)O[C@@H](c2ccc3c(N)ncnn23)[C@H](O)[C@@H]1O)OCc1cc(F)cc(C#N)c1 [Compound 1, ((2R,3S,4R,5S)-5-(4-aminopyrrolo[2,1-f][1,2,4]triazin-7-yl)-2-cyano-3,4-dihydroxytetrahydrofuran-2-yl)methyl ((R)-2-((3-cyano-5-fluorobenzyl)oxy)-3-(octadecyloxy)propyl) hydrogen phosphate]",,440,,> 44400,> 44400
"CCCCCCCCCCCCCCCCCC[C@@H](COP(=O)(O)OC[C@@]1(C#N)O[C@@H](c2ccc3c(N)ncnn23)[C@H](O)[C@@H]1O)OCc1cc(F)cc(C#N)c1 [Compound 37, ((2R,3S,4R)-5-(4-aminopyrrolo[2,1-f][1,2,4]triazin-7-yl)-2-cyano-3,4-dihydroxytetrahydrofuran-2-yl)methyl ((S)-2-((3-cyano-5-fluorobenzyl)oxy)icosyl) hydrogen phosphate]",,,,> 44400,> 44400
